The target in series [1] is T1, HIV-1 capsid protein N-terminal domain (Human immunodeficiency virus type 1 group M subtype B, UniProt P12493).
T1 construct: DNA encoding the CA N-terminal domain (residues 1-151); made in house
In words: 1H-15N HSQC NMR titration, binding to the apical cleft. Conditions: for binding to the capsid NTD, from chemical shift changes (in words): 1H-15N HSQC, FIGS. 13-14. From the text:
DNA encoding the CA N-terminal domain (residues 1-151) was amplified from HIV-1 cDNA plasmid pNL-4-3 and an oligonucleotide encoding a C-terminal hexahistidine tag was appended to the gene. The DNA was inserted into a p11a expression vector (Novagen, Madison, Wis.), and the protein product was purified by cobalt affinity chromatography (Clontech, Palo Alto, Calif.); MWcalc=17523.0 daltons, MWobs=17523.10±0.44 daltons (electrospray Mass Spectrometry). The plasmid for the full length, native capsid protein was kindly provided by Dr. W. I. Sundquist (University of Utah, Salt Lake City, Utah), and the protein was purified as described. NMR spectra were assigned using conventional triple resonance methods. Binding isotherms from ^1H-^15N NMR HSQC titration experiments were calculated with ORIGIN 7.0 software (MicroCal, Northampton, Mass.).
To identify compounds that inhibit functions of the capsid protein, public domain chemical libraries were screened for compounds that might bind to clefts on the surface of the capsid protein and tested for binding using NMR titration spectroscopy. Screening efforts focused mainly on a β-hairpin cleft that is exposed on the surface of the N-terminal domain of the immature capsid protein but becomes occupied by residues of a β-hairpin that forms after proteolytic cleavage of Gag.
The mature N-terminal domain was titrated with N-(3-chloro-4-methylphenyl)-N′-[2-thioethyl-2′-[5-(dimethylaminomethyl)]-2-methylfuryl ]urea (CAP-1).

The subject of another series is gp120. In words: Quantitation of gp120 in supernatant with antibodies against gp120. Format: cell-based, HIV-1. The protocol: (§1) To determine if CAP-1 affects viral gene expression and particle production, reverse transcriptase (RT) activity and CA (p24) levels were measured for the supernatants after pelleting and removal of the cells. […] Quantitation of gp120 was also obtained for the supernatant using antibodies against gp120.

The test system of a further series is Gag polyprotein. In words: p24 (CA) Western blot of Gag and its cleavage products, U1 cells. Format: cell-based, HIV-1. The protocol:
U1 cells (5×10^5 cells/ml) were mixed with TNF-α (10 ng/ml, Sigma) for activation of HIV virion production and treated with CAP-1 at different concentrations. Cultures were harvested 72 hours after treatment. Cell viability was measured using the MTS cell proliferation assay (CellTiter 96 Aqueous One Solution Cell Proliferation Assay, Promega, Madison, Wis.). Supernatants were collected, the cell debris removed by low speed centrifugation, and the particles in the supernatants pelleted by microcentrifugation. Infectious units associated with the particles were measured as described in Kimpton, et al., Detection of replication-competent and pseudotyped HIV with a sensitive cell line on the basis of activation of an integrated β-galactosidase gene, J. Virol. 66: 2232-39, 1992, except that β-gal activities were measured using a Tropix Gal-Screen detector system (Applied Biosystems, Foster City, Calif.). Particle-associated RT activities were determined as described in Huang, et al., p6Gag is required for particle production from full length human immunodeficiency virus type 1 molecular clones expressing protease, J. Virol., […]: 6810-18, 1995. Cell lysates and pelleted particles were subjected to SDS-PAGE analysis using AIDS patient sera (AIDS Research and Reference Regent Program, NIAID, NIH). Quantitative p24 (CA) assays were performed with the HIV-1 p24 Antigen Capture ELISA kit (AIDS vaccine program, FCRDC/SAIC/NCI, Frederick, Md.). MAGI cells were washed after viral adsorption (HIV-1RF) with PBS and were fed fresh media containing CAP-1 at various concentrations. […] Virus particles present on the supernatants were collected by microcentrifugation and particle-associated RT activity and infectivity were subsequently measured.
as §1

In the next series the target is protease (Human immunodeficiency virus type 1 group M subtype B, UniProt P04585). In words: In vitro protease activity. It counts as biochemical.
The test system of another series is HIV-1RF. In words: Virus particle infectivity and RT activity from infected MAGI cell cultures. Format: cell-based. The protocol:
(§2) U1 cells (5×10^5 cells/ml) were mixed with TNF-α (10 ng/ml, Sigma) for activation of HIV virion production and treated with CAP-1 at different concentrations. Cultures were harvested 72 hours after treatment. Cell viability was measured using the MTS cell proliferation assay (CellTiter 96 Aqueous One Solution Cell Proliferation Assay, Promega, Madison, Wis.). Supernatants were collected, the cell debris removed by low speed centrifugation, and the particles in the supernatants pelleted by microcentrifugation. Infectious units associated with the particles were measured as described in Kimpton, et al., Detection of replication-competent and pseudotyped HIV with a sensitive cell line on the basis of activation of an integrated β-galactosidase gene, J. Virol. 66: 2232-39, 1992, except that β-gal activities were measured using a Tropix Gal-Screen detector system (Applied Biosystems, Foster City, Calif.). Particle-associated RT activities were determined as described in Huang, et al., p6Gag is required for particle production from full length human immunodeficiency virus type 1 molecular clones expressing protease, J. Virol., […]: 6810-18, 1995. Cell lysates and pelleted particles were subjected to SDS-PAGE analysis using AIDS patient sera (AIDS Research and Reference Regent Program, NIAID, NIH). Quantitative p24 (CA) assays were performed with the HIV-1 p24 Antigen Capture ELISA kit (AIDS vaccine program, FCRDC/SAIC/NCI, Frederick, Md.). MAGI cells were washed after viral adsorption (HIV-1RF) with PBS and were fed fresh media containing CAP-1 at various concentrations. 72 hours post-infection, the culture supernatants were harvested and pre-cleared. Virus particles present on the supernatants were collected by microcentrifugation and particle-associated RT activity and infectivity were subsequently measured.

Series [2] deals with HIV-1 capsid core assembly. It counts as cell-based. Particulars: particles from treated U1 cells.
Description: Treated (CAP-1) and untreated virus-producing U1 cells were pelleted, washed in phosphate-buffered saline (PBS) and resuspended in at least ten cell pellet volumes of fixative (100 mM sodium cacodylate, pH 7.2, 2.5% glutaraldehyde, 1.6% paraformaldehyde, 0.5% picric acid). Cells were fixed for 24-48 hours, after which fixative was removed and cells were washed twice in PBS and pelleted in eppendorf centrifuge tubes. Washed cell pellets were post-fixed one hour in 1% osmium tetroxide plus 0.8% potassium ferricyanide in 100 mM sodium cacodylate, pH 7.2. After thorough rinsing in water, cells were pre-stained in 4% uranyl acetate one hour, thoroughly rinsed, dehydrated, infiltrated overnight in 1:1 acetone:Epon 812, infiltrated one hour with 100% Epon 812 resin, and embedded in the resin. After polymerization, 60-80 nm thin sections were cut on a Reichert untramicrotome, stained 5 minutes in lead citrate, rinsed, post-stained 30 minutes in uranyl acetate, rinsed and dried. EM was performed at 60 kV on a Philips CM120/Biotwin equipped with a 1024×1024 Gatan multiscan CCD, and images were collected at original magnifications of 25,880×-36,960×, corresponding t resolutions of 8.9 and 6.5 Å/pixel, respectively. For each sample, 4 separate EM grids were viewed, and at least 47 were collected, corresponding to a minimum total area of 35 micron^2.
For another series, the target named is Gag (Human immunodeficiency virus type 1 group M subtype B, UniProt P12493). In words: Mass action calculation of CAP-1 bound to CA/Gag in immature virions. Further details: species or system HIV-1. The protocol:
This is likely due to the high local concentration of Gag molecules in assembled virions (14 mM), which favors binding by ligands with even modest affinities, e.g., N-(3-chloro-4-methylphenyl)-N′-[2-thioethyl-2′-[5-(dimethylaminomethyl)]-2-methylfuryl]urea (CAP-1). Thus conservatively assuming that cytosolic drug concentrations in the budding virus and cells are equal (100 μM), the percentage of viral CAP-1 molecules bound to CA can be estimated by standard mass action calculations which affords a value for the concentration of bound CAP-1 ([CA:CAP-1]) of 94 μM.

Series [3] has as its system HIV-1. In words: Virus production: particle-associated RT activity and CA (p24) levels in U1 supernatants. Format: cell-based. Particulars: U1 cells. The protocol:
(§3) U1 cells (5×10^5 cells/ml) were mixed with TNF-α (10 ng/ml, Sigma) for activation of HIV virion production and treated with CAP-1 at different concentrations. Cultures were harvested 72 hours after treatment. Cell viability was measured using the MTS cell proliferation assay (CellTiter 96 Aqueous One Solution Cell Proliferation Assay, Promega, Madison, Wis.). Supernatants were collected, the cell debris removed by low speed centrifugation, and the particles in the supernatants pelleted by microcentrifugation. Infectious units associated with the particles were measured as described in Kimpton, et al., Detection of replication-competent and pseudotyped HIV with a sensitive cell line on the basis of activation of an integrated β-galactosidase gene, J. Virol. 66: 2232-39, 1992, except that β-gal activities were measured using a Tropix Gal-Screen detector system (Applied Biosystems, Foster City, Calif.). Particle-associated RT activities were determined as described in Huang, et al., p6Gag is required for particle production from full length human immunodeficiency virus type 1 molecular clones expressing protease, J. Virol., 96: 6810-18, 1995. […] Quantitative p24 (CA) assays were performed with the HIV-1 p24 Antigen Capture ELISA kit (AIDS vaccine program, FCRDC/SAIC/NCI, Frederick, Md.). […]

Another series addresses HIV-1 CA (Human immunodeficiency virus type 1 group M subtype B, UniProt P12493). Particulars: for initial assembly rate: 350 nm, 21° C., no compound 204±36.
Series [4] concerns HIV-1. In words: Infectious units of particles from latent infected U1 cells. It counts as cell-based. The procedure: as §3
A further series has as its system U1 cells. In words: Cell viability / toxicity, MTS cell proliferation assay. Particulars: for toxicity (in words): latent infected U1 cells. The procedure:
as §2
The CAP compounds were tested for toxicity and antiviral activity using HIV-1 producing, latent infected U1 cells. This assay allows assessment of antiviral effects on late phase replication events.
Background: Formazan colour is commonly taken as a measure of viable cells.

[5] abbreviates: as a function of increasing CAP-1.

Read-outs that look alike come from different tables or passages of the source.

As to `Cc1ccc(NC(=O)NC(C)C)cc1[N+](=O)[O-]` [CAP-3, N-(2-propyl)-N′-(3-nitro-4-methylphenyl) urea], in series [1], the “binding to the capsid NTD, from chemical shift changes (in words)” value is “very weak binding”.

As for `O=C(Nc1cccc(C(F)(F)F)c1)Nc1ccc(F)c([N+](=O)[O-])c1` [CAP-6, N-(3-nitro-4-fluorophenyl)-N′-[3-(1,1,1-trifluoromethyl)phenyl] urea], the “binding to the capsid NTD, from chemical shift changes (in words)” value in series [1] was “capsid binding”.

In the case of `Cc1ccc(NC(=O)NCCSCc2ccc(CN(C)C)o2)cc1Cl` [CAP-1, N-(3-chloro-4-methylphenyl)-N′-[2-thioethyl-2′-[5-(dimethylaminomethyl)]-2-methylfuryl]urea], the “gp120 in supernatant, treated vs untreated (in words)” value in the series with gp120 was “No differences”. In addition, in the series with Gag polyprotein (setting [5]), the “intracellular levels of Gag (p55) (in words)” value is “reduction”; the “levels of Gag cleavage products p24 and p41 (in words)” value is listed as “remained relatively unaffected”. Moreover, the “proteolytic processing of Gag (in words)” value with Gag polyprotein (p24 Western, treated vs untreated) is “does not significantly affect”. The “in vitro protease activity (in words)” value on protease is “did not affect”. Moreover, in the series with HIV-1RF (100 μM, MAGI cells, 72 hours post-infection), the “infectious units, of the untreated levels” value is listed as “less than 2%”. The “viral RT activity (in words)” value in the series on HIV-1RF (MAGI cells) is recorded as “No reductions”. For the same compound, the “virus production after pre-incubation of MAGI cells or virus particles (in words)” value in the series with HIV-1RF (pre-incubation with CAP-1) was “unaffected”. The “particles with a cone-shaped core (in words)” value in series [2] is on record as “none”. For the same compound, the “particles containing a dense, centrally located core” value in [2] (untreated 70%) is listed as 35%. Further, the “CAP-1 molecules in immature virions bound to Gag” value at Gag (100 μM dose) is on record as 94%. In addition, the “concentration of bound CAP-1 ([CA:CAP-1])” value at Gag (100 μM drug, 14 mM Gag in assembled virions) is 94 µM. In the series on HIV-1 [3], the “CA (p24) levels of supernatants (in words)” value is listed as “unaffected” and the “RT activities of supernatants (in words)” value is “unaffected”. The “effect on the rate of assembly (in words)” value at HIV-1 CA is reported as “diminished in a dose-dependent manner”. Further, the initial assembly rate on HIV-1 CA (compound:CA ratio 1:1) amounted to 93±3 mOD/min. Moreover, the initial assembly rate on HIV-1 CA (compound:CA ratio 2:1) turned out to be 67±16 mOD/min. In addition, in series [1], the “binding to the capsid NTD, from chemical shift changes (in words)” value was “bind to the apical site of the protein”. In addition, in the series with HIV-1 [4], the “effect on supernatant infectivity (in words)” value was “dose dependent reductions”. Moreover, the “reduction of infectivity relative to untreated samples” value with HIV-1 [4] (100 μM, 72 hours) was “ca. 95%”. Besides, in the series on U1 cells (100 μM, U1 cells, 72 hours), the “cell viability (in words)” value is “fully viable”. The “tolerability in cell cultures (in words)” value with U1 cells (cell cultures) is listed as “particularly well-tolerated”. Besides, the “toxicity (in words)” value in the series on U1 cells (72 hours) is recorded as “non-toxic”.

In the case of “N-[(3-chloro-4-methyl phenyl)-N′,N′-propyl] urea [CAP-7]”, the “binding to the capsid NTD, from chemical shift changes (in words)” value in [1] is given as “capsid binding”.

Turning to `Cc1ccc(NC(=O)Nc2ccc(C#N)cc2)cc1Cl` [CAP-4, N-(3-chloro-4-methylphenyl)-N′-(4-cyanophenyl) urea], the “binding to the capsid NTD, from chemical shift changes (in words)” value in series [1] is given as “very weak binding”.

As to `Cc1ccc(NC(=O)Nc2ccc(C(Cl)(Cl)Cl)cc2)cc1Cl` [CAP-5, N-(3-chloro-4-methylphenyl)-N′-[4-(1,1,1-trichloromethyl)phenyl] urea], in [1], the “binding to the capsid NTD, from chemical shift changes (in words)” value was “capsid binding”.

Regarding `CC(=O)Nc1ccc(NC(=O)Nc2ccc(C)c([N+](=O)[O-])c2)cc1` [CAP-2, N-(4-N-acetamidophenyl)-N′-(3-nitro-4-methylphenyl) urea], the “effect on the rate of assembly (in words)” value at HIV-1 CA is “diminished in a dose-dependent manner”. Also, the initial assembly rate is on record as 81±2 mOD/min at HIV-1 CA (compound:CA ratio 0.5:1) and 39±11 mOD/min on HIV-1 CA (compound:CA ratio 1:1). Besides, the “binding to the capsid NTD, from chemical shift changes (in words)” value in series [1] is “bind to the apical site of the protein”. The dissociation constant Kd in series [1] (NMR titration, 1:1 binding isotherms) is 52 ± 27 µM. For the same compound, the “toxicity (in words)” value in the series on U1 cells (72 hours) was “too cytotoxic”.

As usually defined, the Kd is a measure of binding affinity in units of concentration. A higher Kd goes with a looser complex.

The record behind these values is US7361459B2, “Antiviral inhibition of capsid proteins” (University of Maryland, Baltimore County, priority 2002, dated 2008).
